The target in one experiment is CDK2/Cyclin E1 (Homo sapiens, UniProt P24941). In words: CDK2/Cyclin E1 TR-FRET biochemical assay, 0.060 mM ATP. Conditions: 0.15 μM Rb (Ser780)-biotin substrate, 120 min reaction, Table 1.
Another experiment addresses CDK1/Cyclin B1 (Homo sapiens, UniProt P06493). Put plainly: CDK1/Cyclin B1 TR-FRET biochemical assay, 0.015 mM ATP. Conditions: 0.15 μM Rb (Ser780)-biotin substrate, 120 min reaction, Table 1. (In general: In TR-FRET formats the signal depends on donor and acceptor labels being close together.)

The structures appear in SMILES notation.

In patent publication US20260200897A1, “4-((5-(3-(4-(PYRIDIN-2-YL)CYCLOPENTYL)-1H-PYRAZOL-3-YL)AMINO)-BENZENESULFONAMIDE DERIVATIVES AND SIMILAR COMPOUNDS AS CDK INHIBITORS FOR THE TREATMENT OF CANCER” (BeOne Medicines I GmbH, priority 2023, published 2026) one finds IC50 data, which are given here for six molecules.

Usually IC50 stands for the midpoint of a concentration-inhibition curve. A lower IC50 goes with greater potency in that assay.

Chain of CDK1/Cyclin B1 (P06493 whole entry): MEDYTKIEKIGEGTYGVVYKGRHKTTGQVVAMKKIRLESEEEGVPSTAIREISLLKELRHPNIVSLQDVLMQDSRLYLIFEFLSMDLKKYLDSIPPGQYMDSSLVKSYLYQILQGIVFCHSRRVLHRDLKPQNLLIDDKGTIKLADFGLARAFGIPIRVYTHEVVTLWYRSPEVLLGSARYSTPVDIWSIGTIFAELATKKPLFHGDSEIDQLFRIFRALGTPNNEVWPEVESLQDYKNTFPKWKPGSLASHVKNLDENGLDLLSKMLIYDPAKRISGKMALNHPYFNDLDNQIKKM
Chain of CDK1/Cyclin B1 (P14635 whole entry partner): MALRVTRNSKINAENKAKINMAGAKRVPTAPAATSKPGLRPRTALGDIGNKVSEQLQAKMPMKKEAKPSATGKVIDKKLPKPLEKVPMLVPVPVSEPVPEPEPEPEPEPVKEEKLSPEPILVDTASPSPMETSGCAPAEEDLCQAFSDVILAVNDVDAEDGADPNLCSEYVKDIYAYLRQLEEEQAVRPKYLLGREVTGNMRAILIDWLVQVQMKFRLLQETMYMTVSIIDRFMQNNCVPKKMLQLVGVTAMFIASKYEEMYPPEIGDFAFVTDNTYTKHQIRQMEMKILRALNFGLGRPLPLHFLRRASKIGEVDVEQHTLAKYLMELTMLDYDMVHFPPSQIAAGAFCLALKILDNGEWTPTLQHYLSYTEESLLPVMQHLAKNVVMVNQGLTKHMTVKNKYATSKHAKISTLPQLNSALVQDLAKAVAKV

Turning to `CC(C)(C)c1cnc(C2CCC(c3cc(Nc4ccc5c(c4F)CNS5(=O)=O)n[nH]3)C2)o1` (single isomer, unassigned) [Example 91b, cis-5-((5-(3-(5-(tert-butyl)oxazol-2-yl)cyclopentyl)-1H-pyrazol-3-yl)amino)-4-fluoro-2,3-dihydrobenzo[d]isothiazole 1,1-dioxide], the IC50 on CDK2/Cyclin E1 stood at 23 nM; against CDK1/Cyclin B1, 2570 nM.
On the same counts, the results for `CCc1cnc(C2CCC(c3cc(Nc4ccc5c(c4F)CNS5(=O)=O)n[nH]3)C2)o1` (stereo not drawn) [Example 92, 5-((5-(3-(5-ethyloxazol-2-yl)cyclopentyl)-1H-pyrazol-3-yl)amino)-4-fluoro-2,3-dihydrobenzo[d]isothiazole 1,1-dioxide] are 21 nM and 509 nM.
For `O=S1(=O)NCc2c1ccc(Nc1cc(C3CCC(c4ncc(CO)o4)C3)[nH]n1)c2F` (stereo not drawn) [Example 93, 4-fluoro-5-((5-(3-(5-(hydroxymethyl)oxazol-2-yl)cyclopentyl)-1H-pyrazol-3-yl)amino)-2,3-dihydrobenzo[d]isothiazole 1,1-dioxide], the IC50 against CDK2/Cyclin E1 came to 70 nM; at CDK1/Cyclin B1 it was 1760 nM.
With `CCc1cnc(C2CCC(c3cc(Nc4ccc5c(c4)CS(=O)(=O)N5)n[nH]3)C2)o1` (stereo not drawn) [Example 133, 5-((5-(3-(5-ethyloxazol-2-yl)cyclopentyl)-1H-pyrazol-3-yl)amino)-1,3-dihydrobenzo[c]isothiazole 2,2-dioxide], the figures for the 50% inhibitory concentration (IC50) against CDK2/Cyclin E1 and against CDK1/Cyclin B1 were 6.2 nM and 82 nM, respectively.
The corresponding values for `O=S1(=O)Cc2cc(Nc3cc(C4CCC(c5ncc(CO)o5)C4)[nH]n3)ccc2N1` (stereo not drawn) [Example 134, 5-((5-(3-(5-(hydroxymethyl)oxazol-2-yl)cyclopentyl)-1H-pyrazol-3-yl)amino)-1,3-dihydrobenzo[c]isothiazole 2,2-dioxide] are 41 nM and 1110 nM.
Turning to `CCc1cnc(C2CCC(c3cc(Nc4ccc5c(c4F)CS(=O)(=O)N5)n[nH]3)C2)o1` (stereo not drawn) [Example 144, 5-((5-(3-(5-ethyloxazol-2-yl)cyclopentyl)-1H-pyrazol-3-yl)amino)-4-fluoro-1,3-dihydrobenzo[c]isothiazole 2,2-dioxide], the IC50 on CDK2/Cyclin E1 is 16 nM; on CDK1/Cyclin B1, 334 nM.
